From patent US11439650B2, “Thermo-kinetic mixing for pharmaceutical applications” (BOARD OF REGENTS, THE UNIVERSITY OF TEXAS SYSTEM, priority 2007, dated 2022)

Assays:
[1] = neutral pH media; reference (42); cited from earlier work
[2] = DSC / modulated DSC glass transition analysis; format: physicochemical; details: DSC/mDSC, 10° C./min
Description: Differential Scanning calorimetry (DSC). DSC analysis was conducted using a TA Instruments Model 2920 DSC (New Castle, Del.) equipped with a refrigerated cooling system. Samples were weighed to 15±5 mg in aluminum crimped pans (Kit 0219-0041, Perkin-Elmer Instruments, Norwalk, Conn.). For the KTZ dispersions in Methocel™ E50 and Kollidon® 30 the samples were heated at a ramp rate of 10° C./min from 5 to 215° C. with a modulation temperature amplitude of 0.5° C. and a modulation period of 40 seconds for all studies. For the IND and KTZ dispersions in […]® L 100-55 the samples were analyzed by conventional, non-modulated DSC at a ramp rate of 10° C./min from 5 to 200° C. Ultrahigh purity nitrogen was used as the purge gas at a flow rate of 40 mL/min. All data analyses were performed using TA Universal Analysis 2000 software. The thermogram for amorphous KTZ, used in the DSC analysis of the solid dispersions formulations of KTZ in Methocel™ E50 and Kollidon® 30 was obtained on a second heating of crystalline KTZ following an initial heating to 215° C. followed by rapid cooling (20° C./min) to 5° C. The thermograms of Methocel™ E50 and Kollidon® 30 were obtained by first run DSC following preheating of the polymer powders to 90° C. for 15 minutes in an MF-50 model moisture analyzer (AND Company Ltd. Encino, Calif.) to expel absorbed moisture.
Modulated Differential scanning calorimetry testing for the griseofulvin products was performed using a TA Instruments Model 2920 DSC (New Castle, Del.) and analyzed using TA Universal Analysis 2000 Software. Samples were accurately weighed to 15±2 mg in aluminum crimped pans. […]
Modulated Differential scanning calorimetry testing of itraconazole:HPMC E5 processed by TKC and by HME was performed using a TA Instruments Model 2920 DSC (New Castle, Del.) and analyzed using TA Universal Analysis 2000 Software. […]
The tested were conducted on a TA Instruments Model 2920 DSC (New Castle, Del.) and analyzed using TA Universal Analysis 2000 Software. […]

[3] = HPLC degradation products and mass balance of hydrocortisone formulation processed by TKC; format: physicochemical
Description: Pharmaceutical compositions of hydrocortisone were prepared by TKC, having an ejection temperature of approximately 160° C., and compared to the unprocessed drug substance to evaluate the formation of degradation products induced by processing.
Analytical testing of the hydrocortisone formulation processed by TKC was performed by HPLC using a Phenomenex C18 column and mobile phase of 65:35 methanol:water at a flow rate of 1 ml/min. Degradation products were identified and are described in terms of their retention time under this method.

CC(=O)N1CCN(c2ccc(OCC3COC(Cn4ccnc4)(c4ccc(Cl)cc4Cl)O3)cc2)CC1 (stereo not drawn) [KTZ, ketoconazole]
equilibrium (saturation) solubility [1]: 5.98 µg/mL

COC1=CC(=O)C[C@@H](C)[C@]12Oc1c(Cl)c(OC)cc(OC)c1C2=O [amorphous griseofulvin, griseofulvin]
glass transition temperature (Tg) [2]: 90 °C

C[C@]12CCC(=O)C=C1CC[C@@H]1[C@@H]2[C@@H](O)C[C@@]2(C)[C@H]1CC[C@]2(O)C(=O)CO [Hydrocortisone, USP, Hydrocortisone]
Impurity - 3.2 ([3]; HPLC retention time 3.2): 0.20% | Impurity - 3.9 ([3]; HPLC retention time 3.9): 0.26% | Impurity - 4.9 ([3]; HPLC retention time 4.9): 0.20% | Impurity - 5.5 ([3]; HPLC retention time 5.5): 0.62% | Impurity - 8.7 ([3]; HPLC retention time 8.7): 0.13%

CC(=O)N1CCN(c2ccc(OCC3COC(Cn4ccnc4)(c4ccc(Cl)cc4Cl)O3)cc2)CC1 (stereo not drawn) [amorphous KTZ, ketoconazole]
glass transition temperature (Tg) [2]: 45 °C | glass transition temperature (Tg) ([2]; listed as Amorphous KTZ): approximately 45 °C
